Test results reported in US12534466B2, “Crystalline forms of pyrimidino diazepine derivative” (CYCLACEL LIMITED, priority 2019, dated 2026).
Structures can show the parent of a compound that is named as a salt. Where two headings read alike, the source gives them in different places.

Assays:
[1] = target: polo-like kinase 1 (PLK1) (Homo sapiens, UniProt P53350); conditions: cited from earlier work
[2] = Gravimetric vapour sorption (GVS/DVS) hygroscopicity; format: physicochemical; conditions: for Hygroscopicity classification: weight increase from 40-80% RH (25° C.), classes of Table 9, monohydrate
Description: Sorption isotherms were obtained using a Hiden Isochema moisture sorption analyser (model IGAsorp), controlled by IGAsorp Systems Software V6.50.48. The sample was maintained at a constant temperature (25° C.) by the instrument controls. The humidity was controlled by mixing streams of dry and wet nitrogen, with a total flow of 250 ml·min^−1. The instrument was verified for relative humidity content by measuring three calibrated Rotronic salt solutions (10-50-88%). The weight change of the sample was monitored as a function of humidity by a microbalance (accuracy+/−0.005 mg). A defined amount of sample was placed in a tared mesh stainless steel basket under ambient conditions. A full experimental cycle typically consisted of three scans (sorption, desorption and sorption) at a constant temperature (25° C.) and 10% RH intervals over a 0-90% range (60 minutes for each humidity level).

polo-like kinase 1 (PLK1), sequence (P53350 whole entry): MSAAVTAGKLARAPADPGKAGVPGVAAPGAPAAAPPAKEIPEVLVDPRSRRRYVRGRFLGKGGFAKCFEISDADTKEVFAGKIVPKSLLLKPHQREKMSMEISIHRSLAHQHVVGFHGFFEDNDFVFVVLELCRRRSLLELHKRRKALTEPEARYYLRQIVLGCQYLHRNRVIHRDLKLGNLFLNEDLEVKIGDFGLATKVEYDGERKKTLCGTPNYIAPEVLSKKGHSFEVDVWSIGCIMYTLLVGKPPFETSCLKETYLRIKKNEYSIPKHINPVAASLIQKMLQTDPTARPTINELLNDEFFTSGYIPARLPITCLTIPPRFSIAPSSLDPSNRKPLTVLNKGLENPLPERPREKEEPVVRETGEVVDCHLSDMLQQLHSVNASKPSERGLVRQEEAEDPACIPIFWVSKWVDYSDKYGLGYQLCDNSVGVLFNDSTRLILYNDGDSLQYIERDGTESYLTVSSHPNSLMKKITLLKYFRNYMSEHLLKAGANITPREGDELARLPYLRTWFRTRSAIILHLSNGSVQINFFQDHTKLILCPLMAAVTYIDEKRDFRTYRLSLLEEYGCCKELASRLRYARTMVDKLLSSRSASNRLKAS

COc1cc(C(=O)N[C@H]2CC[C@H](N3CCN(C)CC3)CC2)ccc1Nc1ncc2c(n1)N(C1CCCC1)CC1(CC1)C(=O)N2C [Compound (I), 4-(9′-cyclopentyl-5″-methyl-6′-oxo-5′,6′,8′,9′-tetrahydrospiro[cyclopropane-1,7′-pyrimido[4,5-b][1,4]diazepine]-2′-ylamino)-N((trans)-4-(4-methylpiperazin-1-yl)cyclohexyl)-3-methoxybenzamide]
Inhibition of PLK1 (in words) [1]: potent inhibitory activity
Inhibition of PLK1 (in words) ([1]; listed as compound (I)): potent inhibitor

COc1cc(C(=O)N[C@H]2CC[C@H](N3CCN(C)CC3)CC2)ccc1Nc1ncc2c(n1)N(C1CCCC1)CC1(CC1)C(=O)N2C [Monohydrochloride monohydrate]
Hygroscopicity (in words) [2]: relatively low hygroscopicity
Stability of the crystalline form (in words) [2]: stable crystalline form
Weight change (%) from 40 to 80% RH @25° C. (sorption cycle by GVS) ([2]; 40-80% RH, 25° C., sorption cycle): +0.9%
Hygroscopicity classification ([2]; listed as monohydrochloride monohydrate salt): slightly hygroscopic
Hygroscopicity classification [2]: Slightly hygroscopic (≥0.2% and <2%)
